What was measured:
T7 RNA polymerase = T7 RNA polymerase (Escherichia phage T7, UniProt P00573); assay: In vitro transcription yields of modified mRNA; assay type: biochemical; settings: for EPO In Vitro Transcription yield: EPO mRNA made with the modified NTP(s); for GCSF In Vitro Transcription yield: GCSF mRNA made with the modified NTP(s); for Luc In Vitro Transcription yield: Luciferase mRNA made with the modified NTP(s)
[1] = tested on: Rabbit Reticulocyte Lysate; assay: In vitro translation screen, firefly Luciferase modRNA (luciferase assay, relative light units); assay type: biochemical; settings: Table 20; 250 ng modRNA, 45 min, 30° C.
Description: (§1) The in vitro translation assay was done with the Rabbit Reticulocyte Lysate (nuclease-treated) kit (Promega, Madison, Wis.; Cat. #L4960) according to the manufacturer's instructions. The reaction buffer was a mixture of equal amounts of the amino acid stock solutions devoid of Leucine or Methionine provided in the kit.
(§2) The modRNAs of firefly Luciferase, human GCSF and human EPO, harboring chemical modifications on either the bases or the ribose units, were diluted in sterile nuclease-free water to a final concentration of 250 ng in 2.5 ul (Stock 100 ng/μl). The modRNA (250 ng) was added to the mixture of freshly prepared Rabbit Reticulocyte Lysate and reaction buffer.
After 45 min incubation, the reaction was stopped by placing the plate on ice. Aliquots of the in vitro translation reaction containing luciferase modRNA were transferred to white opaque polystyrene 96-well plates (Corning, Manassas, Va.; Cat. # CLS3912) and combined with 100 ul complete luciferase assay solution (Promega, Madison, Wis.). The volumes of the in vitro translation reactions were adjusted or diluted until no more than 2 million relative light units per well were detected for the strongest signal producing samples. […] The plate reader was a BioTek Synergy H1 (BioTek, Winooski, Vt.).

[2] = tested on: Rabbit Reticulocyte Lysate; assay: In vitro translation screen, human GCSF modRNA (GCSF ELISA); assay type: biochemical; settings: Table 20; 250 ng modRNA, 45 min, 30° C.
Description: as §1, §2
(§3) Aliquots of the in vitro translation reaction containing human GCSF modRNA or human EPO mRNA were transferred and analyzed with a human GCSF-specific or EPO ELISA kit (both from R&D Systems, Minneapolis, Minn.; Cat. #s SCS50, DEP00 respectively) according to the manufacturer instructions. All samples were diluted until the determined values were within the linear range of the human GCSF or EPO ELISA standard curve.

[3] = tested on: Rabbit Reticulocyte Lysate; assay: In vitro translation screen, human EPO modRNA (EPO ELISA); assay type: biochemical; settings: Table 20; 250 ng modRNA, 45 min, 30° C.
Description: as §1, §2, §3

HeLa cells [4] = assay: Transfection in HeLa cells, Luciferase modRNA (luciferase assay, relative light units); assay type: cell-based, human; settings: Table 22, 83 ng modRNA, Lipofectamine 2000, 18 h to 22 h
Description: (§4) The day before transfection, 20.000 HeLa cells (ATCC no. CCL-2; Manassas, Va.) were harvested by treatment with Trypsin-EDTA solution (LifeTechnologies, Grand Island, N.Y.) and seeded in a total volume of 100 ul EMEM medium (supplemented with 10% FCS and 1× Glutamax) per well in a 96-well cell culture plate (Corning, Manassas, Va.). The cells were grown at 37° C. in 5% CO2 atmosphere overnight. Next day, 83 ng of Luciferase modRNA or 250 ng of human GCSF modRNA, harboring chemical modifications on the bases or the ribose units, were diluted in 10 ul final volume of OPTI-MEM (LifeTechnologies, Grand Island, N.Y.). Lipofectamine 2000 (LifeTechnologies, Grand Island, N.Y.) was used as transfection reagent and 0.2 μl were diluted in 10 ul final volume of OPTI-MEM. After 5 min incubation at room temperature, both solutions were combined and incubated additional 15 min at room temperature. Then the 20 μl were added to the 100 ul cell culture medium containing the HeLa cells. The plates were then incubated as described before.
After 18 h to 22 h incubation, cells expressing luciferase were lysed with 100 μl Passive Lysis Buffer (Promega, Madison, Wis.) according to manufacturer instructions. Aliquots of the lysates were transferred to white opaque polystyrene 96-well plates (Corning, Manassas, Va.) and combined with 100 ul complete luciferase assay solution (Promega, Madison, Wis.). The lysate volumes were adjusted or diluted until no more than 2 mio relative light units per well were detected for the strongest signal producing samples. […] The plate reader was a BioTek Synergy H1 (BioTek, Winooski, Vt.).

HeLa cells [5] = assay: Transfection in HeLa cells, human GCSF modRNA (GCSF ELISA of supernatant); assay type: cell-based; settings: Table 22, 250 ng modRNA, 18 h to 22 h
Description: as §4
After 18 h to 22 h incubation, cell culture supernatants of cells expressing human GCSF or human EPO were collected and centrifuged at 10.000 rcf for 2 min. The cleared supernatants were transferred and analyzed with a human GCSF-specific or EPO ELISA kit (both from R&D Systems, Minneapolis, Minn.; Cat. #s SCS50, DEP00, respectively) according to the manufacturer instructions. All samples were diluted until the determined values were within the linear range of the human GCSF or EPO ELISA standard curve.

HeLa cells [6] = assay: Transfection in HeLa cells, human EPO modRNA (EPO ELISA of supernatant); assay type: cell-based; settings: Table 22, 18 h to 22 h
human PBMC = assay: PBMC cytokine assay, interferon-alpha production (IFN-alpha multi-subtype ELISA); assay type: cell-based
Description: 50 mL of human blood from three donors was received from Research Blood Components (Brighton, Mass.) in sodium heparin tubes. […] The tubes were centrifuged at 2000 rpm for 30 minutes with low acceleration and braking (Thermo, Waltham, Mass., 75004506). The tubes were removed and the buffy coat PBMC layers were gently transferred to a fresh 50 mL conical and washed with DPBS. The tubes were centrifuged at 1450 rpm for 10 minutes. The supernatant was aspirated and the PBMC pellets were resuspended and washed in 50 mL of DPBS. The tubes were centrifuged at 1450 rpm for 10 minutes. […] The cell suspensions were adjusted to a concentration of 3.0×10^6 cells/mL live cells. […] Within 30 minutes, transfection mixtures were added to each well at a volume of 50 μL per well. […] The transfection mixtures were then transferred to each of the human PBMC plates at 50 μL per well (6 wells per mRNA sample). The plates were then incubated at 37° C. […] In order to harvest the supernatant, plates were centrifuged at 1450 rpm for 5 min in a swinging plate rotor. The supernatant of 6 wells transfected with the same mRNA was carefully harvested and pooled in a single well of a fresh 96-well plate. Supernatants were either frozen or used fresh until ELISA analysis was done. The ability of unmodified and modified mRNA to trigger innate immune recognition as measured by interferon-alpha production.

Chain of T7 RNA polymerase (P00573 whole entry): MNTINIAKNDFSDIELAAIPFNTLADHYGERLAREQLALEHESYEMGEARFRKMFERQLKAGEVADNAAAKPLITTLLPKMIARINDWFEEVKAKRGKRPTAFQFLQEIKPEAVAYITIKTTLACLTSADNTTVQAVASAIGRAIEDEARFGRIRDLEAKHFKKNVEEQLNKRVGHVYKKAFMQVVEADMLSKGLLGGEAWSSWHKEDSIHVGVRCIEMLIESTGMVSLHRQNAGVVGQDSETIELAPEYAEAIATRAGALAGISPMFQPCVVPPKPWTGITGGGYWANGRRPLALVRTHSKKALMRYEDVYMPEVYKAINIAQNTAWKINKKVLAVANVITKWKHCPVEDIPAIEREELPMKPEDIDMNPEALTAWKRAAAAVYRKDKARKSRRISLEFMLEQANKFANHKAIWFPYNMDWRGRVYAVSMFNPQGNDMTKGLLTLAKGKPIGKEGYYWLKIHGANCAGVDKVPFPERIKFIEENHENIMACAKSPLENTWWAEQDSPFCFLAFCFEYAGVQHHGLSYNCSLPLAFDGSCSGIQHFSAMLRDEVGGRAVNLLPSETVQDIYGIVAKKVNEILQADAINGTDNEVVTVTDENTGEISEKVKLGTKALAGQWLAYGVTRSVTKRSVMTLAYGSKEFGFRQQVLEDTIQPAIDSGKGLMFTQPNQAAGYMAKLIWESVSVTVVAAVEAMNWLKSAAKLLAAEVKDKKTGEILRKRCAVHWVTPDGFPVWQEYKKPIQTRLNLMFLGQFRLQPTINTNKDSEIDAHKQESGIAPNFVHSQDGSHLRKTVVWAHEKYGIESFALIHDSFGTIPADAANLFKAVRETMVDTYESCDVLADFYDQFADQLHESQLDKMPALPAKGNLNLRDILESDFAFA

Compound	EPO In Vitro Transcription yield (T7 RNA polymerase) [mg]	GCSF In Vitro Transcription yield (T7 RNA polymerase) [mg]	Luc In Vitro Transcription yield (T7 RNA polymerase) [mg]	Luc Expression (RLUs) [1] [RLUs]	GCSF Expression [2] [pg/mL]	Epo Expression [3] [pg/mL]	Luc Expression (RLUs) (HeLa cells [4])	GCSF Expression (HeLa cells [5]) [pg/mL]	Epo Expression (HeLa cells [6]) [pg/mL]	interferon-alpha concentration in PBMC supernatant (human PBMC; Luc mRNA, 1st value in cell) [pg/mL]	interferon-alpha concentration in PBMC supernatant (human PBMC; Luc mRNA, 2nd value in cell) [pg/mL]	interferon-alpha concentration in PBMC supernatant (human PBMC; Luc mRNA, 3rd value in cell) [pg/mL]	interferon-alpha concentration in PBMC supernatant (human PBMC; hEPO mRNA, 1st value in cell) [pg/mL]	interferon-alpha concentration in PBMC supernatant (human PBMC; hEPO mRNA, 2nd value in cell) [pg/mL]	interferon-alpha concentration in PBMC supernatant (human PBMC; hEPO mRNA, 3rd value in cell) [pg/mL]	interferon-alpha concentration in PBMC supernatant (human PBMC; hGCSF mRNA, 1st value in cell) [pg/mL]	interferon-alpha concentration in PBMC supernatant (human PBMC; hGCSF mRNA, 2nd value in cell) [pg/mL]	interferon-alpha concentration in PBMC supernatant (human PBMC; hGCSF mRNA, 3rd value in cell) [pg/mL]
Nc1nc(=O)n([C@@H]2O[C@H](COP(=O)(O)OP(=O)(O)OP(=O)(O)O)C(O)C2O)cc1CO (stereo in doubt) [00901014005 (350), 5-Hydroxymethyl-CTP]	0.7778	0.6391	0.4073	154000	26600	9425	22160	1151000	440300	7130	3680	8990	4960	3100	2412.5	6575	5800	8180
CC(=O)Nc1ccn([C@@H]2O[C@H](COP(=O)(O)OP(=O)(O)OP(=O)(O)O)C(O)C2O)c(=O)n1 (stereo in doubt) [Compound 00901014007, N4-Ac-CTP]	0.4351	0.3658	0.4394	167600	8794	8675	141300	2094000	2907000	7170	2500	5879	4050	2137.5	5850	5683.33	4883.33	4590
Nc1nc(=O)n([C@@H]2O[C@H](COP(=O)(O)OP(=O)(O)OP(=O)(O)O)C(O)C2O)cc1Br (stereo in doubt) [03601014008 (379), 5-Bromo-CTP]	0.3454	0.3685	0.5161	194900	13510	8581	125700	1003000	3263000	5470	1080	5420	2300	487.5	500	2808.33	2266.67	1650
